Experimental data from PMC12268683, “A global perspective on autoinducer-2-mediated cell communication in prokaryotes” (iScience, 2025).

Columns and labels:
[1] = target: T1, LsrB receptor of S. coelicolor A3(2) (second of two, locus not given); experiment: isothermal titration calorimetry; type: binding, Streptomyces coelicolor; settings: 25 °C, 50 mM Tris, 150 mM NaCl, 10% glycerol, pH 8.0; one-site model; no borate added; which of the two LsrB not given
T1 construct: His6-tagged, pET-28a, E. coli BL21(DE3) or its luxS mutant, Ni-NTA
Text: isothermal titration calorimetry on LsrB receptor of S. coelicolor A3(2) (second of two, locus not printed) | the LsrB receptors bound AI-2 with high affinity

[2] = target: T2, LsrB receptor of S. coelicolor A3(2) (first of two, locus not given); experiment: isothermal titration calorimetry; type: binding, Streptomyces coelicolor; settings: 25 °C, 50 mM Tris, 150 mM NaCl, 10% glycerol, pH 8.0; one-site model; no borate added; which of the two LsrB not given
T2 construct: His6-tagged, pET-28a, E. coli BL21(DE3) or its luxS mutant, Ni-NTA
Text: isothermal titration calorimetry on LsrB receptor of S. coelicolor A3(2) (first of two, locus not printed) | the LsrB receptors bound AI-2 with high affinity

CC(=O)C(=O)[C@@H](O)CO [DPD]
Kd [1]: 101 ± 10 nM | Kd [2]: 175 ± 30 nM
